Measurements published in US20140303078A1, “MODULATION OF PANCREATIC BETA CELL PROLIFERATION” (President and Fellows of Harvard College, priority 2011, published 2014).
Like-named read-outs stand apart in the source and are kept apart here. Ends that are not written are not given here.

Columns and labels:
pancreatic beta cells [1] = assay: S661 repeated dosing in normal mice, BrdU incorporation by immunohistochemistry; format: in vivo, C57Bl/6 mice; details: 4 days
Method: FIG. 12 is a bar graph showing beta cell replication after repeated dosing of S661 in the pancreas of normal mice. Increased replication is shown as a fold increase compared to vehicle rate. Replication was analyzed by immunohistochemistry. The control in these experiments is a vehicle without S661.
In a study, S661 was administered subcutaneously in vehicle to C57Bl/6 mice 3 times daily at the following doses 1 mg/kg; 0.5 mg/kg; 0.25 mg/kg or 0.125 mg/kg bodyweight for a period of 4 days. In parallel BrdU was administered once daily at a dose of 100 mg/kg for the same period. At the fifth day the pancreas was removed and fixed in PFA. Paraffin embedded sections were stained for insulin, DAPI and BrdU. The incorporation of BrdU in replicating beta cells was analyzed using an automated script on images generated on a Zeiss Axioimager Z2.

pancreatic beta cells [2] = assay: S661 once daily in normal mice, beta cell replication by flow cytometry; format: in vivo, C57Bl/6 mice; details: S661 1 mg/kg s.c. once daily, 4 days
Method: FIG. 13 is a bar graph showing beta cell replication after repeated dosing of S661 in normal mice. Increased beta cell replication with S661 treatment is shown as a percentage of replication. Replication was analyzed by flow cytometry. The control in these experiments is a vehicle without S661. (*** p<0.001; Student's T-Test)
In another study, S661 was administered subcutaneously in vehicle to C57Bl/6 mice as once daily injections of 1 mg/kg bodyweight for a period of 4 days. In parallel BrdU was administered once daily at a dose of 100 mg/kg for the same period. At the fifth day the pancreas was removed and the replication of beta cell was measured by flow cytometry.

pancreatic beta cells [3] = assay: S661 repeated dosing in diet-induced obesity (DIO) mice, BrdU immunohistochemistry; format: in vivo, C57Bl/6 mice (DIO); details: S661 3 times 1 mg/kg or 0.125 mg/kg s.c., 4 days
Method: Increased beta cell replication with S661 treatment is shown as percent replication; there was no effect on non-beta cell replication. […] Immunohistochemistry was performed to analyze replication and islet area. (* p<0.05; ** p<0.01; Student's T-Test)
C57Bl/6 mice were fed a high fat diet for 17 weeks. S661 was administered subcutaneously in vehicle to DIO mice at doses of 3 times 1 mg/kg or 0.125 mg/kg bodyweight for a period of 4 days. In parallel BrdU was administered once daily at a dose of 100 mg/kg for the same period. At the fifth day the pancreas was removed and fixed in PFA. Paraffin embedded sections were stained for insulin, DAPI and BrdU. The incorporation of BrdU in replicating cells was analyzed using an automated script on images generated on a Zeiss Axioimager Z2.

[4] = obese rats, previous reports; cited from earlier work
pancreatic beta cells [5] = assay: S961 treatment of mice, beta cell replication (Ki67/insulin immunostaining of pancreas); format: in vivo; details: 0.125 to 1 μMol/Kg/week, vs vehicle
Description: The white arrows point to replicating beta cells. FIG. 1C is a bar graph showing Ki67+/insulin+% after treatment for 7 days with increasing doses (from 0.125 μMol/Kg/week to 1 μMol/Kg/week) of S961. […] The control in these experiments is vehicle without S961. To count the Ki67+/insulin+ percentage and the beta cell area/pancreas area, the whole pancreas was cryosectioned and immunostained, and the standard graph analysis tools such as Metamorph and Photoshop were used for the quantification.
As described herein, administration of a low dose of insulin receptor antagonist S961 to a mammal produces an increase in beta cell replication (FIG. 1). Following injection of S961, gene expression in liver, muscle, and fat was analyzed because these tissues are involved in carbohydrate storage and metabolism. Of particular interest as a result of this analysis was mouse gene EG624219.

TD26 (EG624219) mRNA = assay: TD26 mRNA expression in tissues of mice treated with S961 for 7 days; format: in vivo; details: liver and fat
Description: Genes close to the diagonal line show similar expression values in treated and untreated liver. […] TD26 expression increases in the liver and fat upon S961 treatment. […] The presumptive signal peptide is included at the N-terminus. […] Hepa1-6 cells have been transfected with a plasmid carrying the gene for TD26 fused to a Myc-tag. The cells were stained with myc antibody.

[6] = Blood glucose levels after administration of S961; format: in vivo
Description: As used herein, low doses of S961 will typically be less than 1 μMol/Kg/week, preferably from 0.125 μMol/Kg/week to 0.5 μMol/Kg/week. However it will be understood that increased doses may be useful as well, particularly if utilized in conjunction with an anti-hyperglycemic agent.

Row | Substance | increase in β-cell replication in comparison to vehicle (pancreatic beta cells [1]; S661 0.125 mg/kg s.c. 3 times daily) | increase in β-cell replication in comparison to vehicle (pancreatic beta cells [1]; S661 1 mg/kg s.c. 3 times daily) | increase in the percentage of beta cell replication as compared to vehicle (pancreatic beta cells [2]) | beta cell replication (pancreatic beta cells [3]) | islet area relative to total pancreas area (pancreatic beta cells [3]) | non-beta cell replication (pancreatic beta cells [3]) | blood glucose levels [4] | beta cell replication (Ki67+/insulin+) (pancreatic beta cells [5]; treatment for 7 to 10 days) | beta cell area/pancreas area (pancreatic beta cells [5]; treatment for 7 days) | relative expression of TD26 mRNA (TD26 (EG624219) mRNA) | blood glucose levels ([6]; increasing doses of S961) | blood glucose levels ([6]; low doses of S961)
1 | S661: 43 amino acid peptide insulin receptor antagonist, SEQ ID NO: 16 (GSLDESFYDWFERQLGGGSGGSSLEEEWAQIQCEVWGRGCPSY), C-terminus is an amide (GSLDESFYDWFERQLGGGSGGSSLEEEWAQIQCEVWGRGCPSY-NH2; cysteine pairing not given here) | 2 fold | 5 fold | ~5 fold | increased amount of beta cell replication | increased islet area relative to total pancreas area | does not increase non-beta cell replication | marked increase in blood glucose levels |  |  |  |  | 
2 | S961: 43 amino acid peptide insulin receptor antagonist, SEQ ID NO: 16 (GSLDESFYDWFERQLGGGSGGSSLEEEWAQIQCEVWGRGCPSY), C-terminus is an acid (GSLDESFYDWFERQLGGGSGGSSLEEEWAQIQCEVWGRGCPSY-OH; cysteine pairing not given here) |  |  |  |  |  |  |  | induces beta cell replication | significant increase | increases | blood glucose levels increase | does not increase blood glucose levels
